Experimental data published in patent US11401306B2, “HPV16 non HLA-restricted t-cell vaccines, compositions and methods of use thereof” (priority 2016, dated 2022).

Experiments:
Format in all cases: in vivo
[1] = test system: HPV-specific CD8+ T-cell induction (splenocytes); assay: ELISPOT in normal C57/B6 mice, peptide with other cationic lipids; conditions: stimulated with RAHYNIVTF (SEQ ID NO: 1)
Protocol: To determine if the identified long HPV16 peptides are compatible with other cationic lipids besides DOTAP, the peptide corresponding to SEQ ID NO: 26 was used as the model peptide in combination with two other cationic lipids DOTMA and DOEPC. To evaluate the ability of the peptides to effectively undergo processing and presentation, in the presence of both cationic lipids, an ELISPOT study was conducted using normal C57/B6 mice. ELISPOT studies were performed as described above and utilized to determine effective CD8+ T-cell induction.
In formulation 1, 1.35 mg/mL of DOTMA was mixed 1:1 v/v with 0.5 mg/mL of the peptide corresponding to SEQ ID NO: 26.
In formulation 2, 1.67 mg/mL of DOEPC was missed 1:1 v/v with 0.5 mg/mL of the peptide corresponding to SEQ ID NO: 26.
For each formulation 4 mice were vaccinated on Day 0 and Day 7. On Day 14 the mice were scarified and the splenocytes utilized in the ELISPOT study.

TC-1 tumor = TC-1 tumor regression screening of peptides in C57/B6 mice; design: key: Positive: a positive T-cell response was a T-cell response that resulted in regression of the tumor; conditions: TC-1 tumors in C57/B6 mice, vaccinated day 7, peptide alone or with cationic lipid
Excerpt: (§1) Sequence selection was accomplished herein using both tumor regression studies in C57/B6 mice, and interferon-gamma ELISPOT studies in HLA-A2 humanized transgenic mice. […] In the HLA-A2 mouse model ELISPOT study, at least 20 spots per million splenocytes was regarded to be a positive response.
This example illustrates the evaluation or screening of several HPV16 E7 peptides in the TC-1 mouse tumor regression model for their effective processing and presentation of the key epitopes leading to HPV-specific T-cell induction and subsequent tumor regression.
In the tumor regression screening studies mice were implanted with 100,000 TC-1 cells on day 0. On day 7, once the tumors were well established the mice were vaccinated with the specific peptide sequences, either formulated alone or in combination with cationic lipids such as DOTMA, DOEPC or R-DOTAP to facilitate up-take and presentation. In these studies, the vaccine contained the selected peptide at a concentration of 0.1-3.0 mg/mL and cationic liposomes at a concentration of 0.2-3.0 mg/mL. In the cases where the peptide sequences were lipidated by attaching a palmitoyl chain, the peptides were simply mixed with the cationic liposomes prior to vaccination. In the case of the non-lipidated peptides, the liposomes were made and peptides encapsulated by traditional thin film liposome preparation methods (F Szoka, and D Papahadjopoulos, Comparative Properties and Methods of Preparation of Lipid Vesicles (Liposomes), Annual Review of Biophysics and Bioengineering, Vol. 9:467-508, 1980). Other methods well known to those skilled in the art may also have been used.
A sample tumor regression plot showing results for peptides corresponding to SEQ ID NO: 1 (blank square), SEQ ID NOS: 7, 8, 31 32 and 31 (solid black circle), SEQ ID NO: 7 (blank circle), and SEQ ID NO: 8 (solid black triangle) is shown in FIG. 3.

[2] = test system: HPV-specific T-cell response (splenocytes); assay: IFN-g ELISPOT on splenocytes of vaccinated humanized HLA-A2 transgenic mice
Excerpt: as §1
This example highlights the approach to evaluating T-cell responses using ELISPOT studies in humanized HLA-A2 transgenic mice. In these studies, the vaccine contained the selected peptide at a concentration of 0.1-3.0 mg/mL and cationic liposomes when used, at a concentration of 0.2-3.0 mg/mL. Humanized HLA-A2 transgenic mice having components of the human immune system capable of recognizing human antigens were vaccinated on day 0 and day 7 with 100 uL of the vaccine. On day 14 the mice were sacrificed and HPV-specific immune response evaluated by interferon-gamma ELISPOT using standard approaches with the splecocytes from the mice (4-8 per group). The splenocytes were stimulated with the specified CD8+ T-cell epitope peptides or the long multi-epitope peptides specified in Table 2. The number of IFN-g spots per million cells is listed for the specified examples. […] The ability of the humanized transgenic mice to successfully generate a T-cell immune response (>20 spots) when stimulated with each of the long multi-epitope peptides as well as short single epitope peptides confirms that the selected peptides are effectively processed and presented to T-cells. In these studies, un-stimulated splenocytes and splenocytes stimulated with irrelevant peptides were both used together as negative controls in every assay. For the positive control in the assay ConA was used.
The present study was performed to evaluate the effect of chemical modification of select peptides on immunogenicity and their ability to be processed, presented and to prime human CD8+ HPV-specific T-cell responses. Peptides corresponding to SEQ ID NO: 23 and 25 contain cysteines which upon oxidation lead to the formation of dimers and other multimers. Two vaccine formulations were prepared containing peptides corresponding to SEQ ID NO: 23 and 25.
In Formulation A: Both peptides were monomeric with high purity confirmed by HPLC analysis. The vaccine contained 1.5-1.6 mg/mL of each peptide.
In Formulation B: Significant oxidation and multimer formation of both peptides was confirmed by HPLC analysis.
Both formulations were mixed 1:1 with 5.8 mg/mL of R-DOTAP prior to vaccination.
The immunogenicity of the peptides was compared as described in the above examples in 10 HLA-A2 mice per formulation by evaluating the ability to induce CD8+ T-cells. ELISPOT studies were performed as described above.

Question: Which “ELISPOT result Av spots/10^6 cells” value ([1]; formulated with DOEPC (formulation 2)) does the source give for PalmKSS GQAEPDRAHYNIVTF [SEQ ID NO: 26] here?
Answer: Its value is 243 spots/10^6 cells.

Question: What about the “ELISPOT result Av spots/10^6 cells” value ([1]; formulated with DOTMA (formulation 1)) of the same substance?
Answer: The value was 988 spots/10^6 cells.

Question: And the “Immune Response, Method: tumor regression” value (TC-1 tumor)?
Answer: Its value is “Positive tumor regression”.

Question: And the “Immune Response, Method: ELISPOT” value ([2]; HLA-A2 humanized transgenic mice, IFN-gamma ELISPOT)?
Answer: The value was “Positive, ELISPOT (at least 20 spots per million splenocytes was regarded to be a positive response)”.

Question: And the “ELISPOT result Av spots/10^6 cells” value ([2]; splenocytes stimulated with GQAEPDRAHYNIVTF (SEQ ID NO: 5))?
Answer: Its value is 1,544 spots/10^6 cells.

Question: And the “ELISPOT result Av spots/10^6 cells” value ([2]; splenocytes stimulated with RAHYNIVTF (SEQ ID NO: 1))?
Answer: The value was 1,552 spots/10^6 cells.
